Results on one cell line are retold here after the supplement of paper PMC10307832.

Assay in all cases: relative viability (nuclei count vs DMSO), 5 days (fraction); higher = more cells survive
Compound in the test “IU1-47 + Vorinostat”: CC1=CC(=C(N1C2=CC=C(C=C2)Cl)C)C(=O)CN3CCCCC3 [IU1-47] + O=C(CCCCCCC(=O)Nc1ccccc1)NO [Vorinostat] (partner 1 µM)
The essentials: (§1)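 Lung cancer cell lines, seeded in 1536-well plates, were treated the following day by pin tool with a single drug or with five library-drug doses (not always all listed) in √10 steps on top of a fixed anchor-drug dose. Cells were fixed and nuclei stained in one step after 5 days, and nuclei were counted. Relative viability is the nuclei count for treated wells divided by that for vehicle wells, reported as medians of duplicate plates.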

Compound in the test “IU1-47 + Decitabine”: CC1=CC(=C(N1C2=CC=C(C=C2)Cl)C)C(=O)CN3CCCCC3 [IU1-47] + Nc1ncn([C@H]2C[C@H](O)[C@@H](CO)O2)c(=O)n1 [Decitabine] (partner 2 µM)
The essentials:
as §1

Compound in the test “FG-4592 + Lapatinib”: Cc1nc(C(=O)NCC(=O)O)c(O)c2ccc(Oc3ccccc3)cc12 [FG-4592] + CS(=O)(=O)CCNCc1ccc(-c2ccc3ncnc(Nc4ccc(OCc5cccc(F)c5)c(Cl)c4)c3c2)o1 [Lapatinib] (partner 2 µM)
The essentials: as §1

Compound in the test “IU1-47 + Alpelisib”: CC1=CC(=C(N1C2=CC=C(C=C2)Cl)C)C(=O)CN3CCCCC3 [IU1-47] + Cc1nc(NC(=O)N2CCC[C@H]2C(N)=O)sc1-c1ccnc(C(C)(C)C(F)(F)F)c1 [Alpelisib] (partner 2 µM)
The essentials: as §1

Turning to UMC-11, the relative viability with IU1-47 + Vorinostat (first compound 0.08 µM) came out at 0.409; with IU1-47 + Vorinostat (first compound 0.253 µM), 0.408; with IU1-47 + Vorinostat (first compound 0.8 µM) it was 0.374; with IU1-47 + Vorinostat (first compound 2.53 µM), 0.413; with IU1-47 + Vorinostat (first compound 8 µM), 0.377; in the test with IU1-47 + Decitabine (first compound 0.08 µM), 0.664. Also, the relative viability is 0.622 in the test with IU1-47 + Decitabine (first compound 0.253 µM); 0.571 with IU1-47 + Decitabine (first compound 0.8 µM); 0.581 with IU1-47 + Decitabine (first compound 2.53 µM); 0.717 with IU1-47 + Decitabine (first compound 8 µM); 0.948 in the test with FG-4592 + Lapatinib (first compound 0.08 µM); 0.955 with FG-4592 + Lapatinib (first compound 0.253 µM). The relative viability is 0.8 with FG-4592 + Lapatinib (first compound 0.8 µM); 0.936 with FG-4592 + Lapatinib (first compound 2.53 µM); 0.822 with FG-4592 + Lapatinib (first compound 8 µM); 1.09 with IU1-47 + Alpelisib (first compound 0.08 µM); 1.1 with IU1-47 + Alpelisib (first compound 0.253 µM); 1.02 with IU1-47 + Alpelisib (first compound 0.8 µM). Besides, the relative viability in the test with IU1-47 + Alpelisib (first compound 2.53 µM) is 1.24; with IU1-47 + Alpelisib (first compound 8 µM), 0.735.
